Test results: patent publication US20190231757A1, “COMBINATION OF SPLEEN TYROSINE KINASE INHIBITORS AND OTHER THERAPEUTIC AGENTS” (Takeda Pharmaceutical Company Limited, priority 2016, published 2019)
Values joined by “and” are separate entries in the source; they are usually repeats but may differ in a detail not shown here. Equal values may be shown once. Where a name gives a salt, the structure may show the parent alone.

What was measured:
[1] = mouse, in vivo, po, 60 mg/kg
[2] = Body weight and tolerability, A20 study (Example 1); type: in vivo, mouse; settings: Compound A 60 mg/kg PO QD 21 d, anti-PD-1 10 mg/kg IP Q4D x3, alone or combined
OCI-LY 10 xenografts = assay: Antitumor activity in CB17 SCID mice bearing OCI-LY10 xenografts, ABT-199 combination (Example 11); type: in vivo, mouse; settings: Day 21, alone or combined
Experimental: Tumor growth inhibition was calculated on Day 21 of the study. The last measurement was taken on Day 46 of the study.
(§1) Experimental design: Female CB17 SCID mice (Charles River Laboratories, about 21 g at treatment start) were inoculated subcutaneously in the flank (cell suspension) with 4.0×10^6 OCI-Ly10 cells. Tumor growth was monitored with vernier calipers. Tumor volume was calculated using the formula V=W^2×L/2, where V=volume, W=width and L=length of the tumor. When the mean tumor volume reached approximately 175 mm^3, the animals were randomized into treatment groups (n=5/group). […] Tumor growth and body weight were measured twice per week. Tumor growth inhibition and body weight change were calculated on Day 21 of treatment.
(§2) Statistical analysis: The differences in the tumor growth trends over time between pairs of treatment groups were assessed using linear mixed effects regression models. These models account for the fact that each animal was measured at multiple time points. A separate model was fit for each comparison, and the areas under the curve (AUC) for each treatment group were calculated using the predicted values from the model. The percent decrease in AUC (dAUC) relative to the reference group was then calculated. […] Further details regarding pairwise comparisons are provided in the Example 2.
(§3) Drug combinations were assessed for synergy using observed AUC values. The change in AUC relative to the control was calculated for both single agent treatment groups as well as the combination group. The interaction between the two compounds was then assessed by comparing the change in AUC observed in the combination group to the sum of the changes observed in both single agents. The results can be divided into four categories: synergistic, additive, sub-additive, and antagonistic. Further details regarding combination analyses are provided in the Example 2.
(§4) Once a final analysis was selected, the tumor measurements observed on a date pre-specified by the researcher (typically the last day of treatment) were analyzed to assess tumor growth inhibition. For this analysis, a T/C ratio was calculated for each animal by dividing the tumor measurement for the given animal by the mean tumor measurement across all control animals. The T/C ratios across a treatment group were compared to the T/C ratios of the control group using a two-tailed Welch's t-test.

[3] = mouse, in vivo, po, 60 mg/kg; remark: listed apart in the source
[4] = Body weight and tolerability, OCI-LY10 gemcitabine study (Example 7); type: in vivo, mouse; settings: alone or combined
Experimental: as §1, with “(Taconic Biosciences; weight” for “(Charles River Laboratories, about 21 g”, “start was 20 g)” for “start)”, “cells.” for “cells. Tumor growth was monitored with vernier calipers.”, “199” for “175”, “into 6” for “into”, “(n=8/group).” for “(n=5/group).”

[5] = Body weight and tolerability, TMD8 ABT-199/gemcitabine study (Example 9); type: in vivo, mouse; settings: alone or combined with Compound A
Experimental: (§5) Experimental design: Female CB17 SCID mice (Taconic Biosciences; weight at treatment start was about 19 g) were inoculated subcutaneously in the flank (cell suspension) with 5.0×10^6 TMD8 cells. Tumor growth was monitored with vernier calipers. Tumor volume was calculated using the formula V=W^2×L/2, where V=volume, W=width and L=length of the tumor. When the mean tumor volume reached approximately 245 mm^3, the animals were randomized into 6 treatment groups (n=8/group). […] Tumor growth and body weight were measured twice per week. Tumor growth inhibition and body weight change were calculated on Day 14 of treatment.

[6] = test system: CT26 mouse syngeneic colon cancer model; assay: CT26 mouse syngeneic colon cancer model, prior non-clinical study; type: in vivo; settings: single agents
TMD8 DLBCL xenografts [7] = assay: Antitumor activity in CB17 SCID mice bearing TMD8 DLBCL xenografts, gemcitabine combination (Example 8); type: in vivo, mouse; settings: Day 14, alone or combined
Experimental: Tumor growth inhibition was calculated on Day 14 of the study. The last measurement was taken on Day 40 of the study.
as §5, with “was” for “was about”, “215” for “245”, “into” for “into 6”
as §2
as §3, with “analysis” for “analyses”
as §4

[8] = test system: Ly10 human lymphoma xenografts; assay: Antitumor activity in SCID mice bearing Ly10 xenografts, rituximab combination (Example 13); type: in vivo, mouse; settings: alone or combined
TMD8 DLBCL xenografts [9] = assay: Antitumor activity in CB17 SCID mice bearing TMD8 DLBCL xenografts, ABT-199 or gemcitabine combination (Example 9); type: in vivo, mouse; settings: Day 14, alone or combined with Compound A
Experimental: Tumor growth inhibition was calculated on Day 14 of the study. The last measurement was taken on Day 29 of the study.
as §5, §2, §3, §4

Ly19 xenografts = assay: Antitumor activity in SCID mice bearing Ly19 xenografts, bendamustine combination (Example 4); type: in vivo, mouse; settings: alone or combined
[10] = Compound A 60 mg/kg, ABT-199 12.5 mg/kg
[11] = Compound A 60 mg/kg, ABT-199 25 mg/kg, gemcitabine 5 mg/kg
[12] = Day 21, Compound A 60 mg/kg PO QD x21, rituximab 1 mg/kg IV QW x3
[13] = Day 14, Compound A 60 mg/kg PO QD x14, bendamustine 1.0 mg/kg IV BIW x2

Cn1cc(-c2nc(N[C@@H]3CCCC[C@@H]3N)c(F)c3c2C(=O)NC3)cn1 [Compound A, 6-((1R,2S)-2-aminocyclohexylamino)-7-fluoro-4-(1-methyl-1H-pyrazol-4-yl)-1H-pyrrolo[3,4-c]pyridine-3 (2H)-one citrate]
Maximum mean % BWL [1]: 0%
Number of animals removed [2]: 1
% BW Change (Day Maximum) ([2]; maximum change within treatment period, citrate): 15.8% and 15.8 (19) %
TGI (%) (OCI-LY 10 xenografts; Compound A 60 mg/kg PO QD, ABT-199 12.5 mg/kg PO QD): 61.0%
Mean Tumor Volume (mm^3) ± SEM (OCI-LY 10 xenografts; [10]): 408 ± 104.9 mm^3
T/C (OCI-LY 10 xenografts; [10]): 0.39
increase in mean body weight on Day 14 compared to Day 0 [3]: 1.6 g
% BW Change (Day Maximum) ([4]; Compound A 60 mg/kg PO QD 21 d, gemcitabine 2.5 mg/kg IP Q3D (4 doses)): 6.8 (21) %
Number of animals removed ([4]; Compound A 60 mg/kg, gemcitabine 2.5 mg/kg): 0
% BW Change (Day Maximum) ([5]; Compound A 60 mg/kg PO QD 14 d, ABT-199 25 mg/kg PO QD 14 d, gemcitabine 5 mg/kg IP Q3D x4): 7.9 (14) %
Number of animals removed [5, 11]: 0
animals survived to 30 days after the last dose [6]: 20%
Mean Tumor Volume (mm^3) ± SEM (TMD8 DLBCL xenografts [7]; Compound A 60 mg/kg PO QD, gemcitabine 5 mg/kg IP Q3D x4): 957.2 ± 82.2 mm^3
T/C (TMD8 DLBCL xenografts [7]; Compound A 60 mg/kg, gemcitabine 5 mg/kg): 1.07
Mean Tumor Volume (mm^3) ± SEM at Day 21 [8, 12]: 217.6 ± 25.6 mm^3
TGI (%) [8, 12]: 76.0%
dAUC ([8]; vs vehicle, Compound A 60 mg/kg, rituximab 1 mg/kg): 122.4
TGI (%) (TMD8 DLBCL xenografts [9]; Compound A 60 mg/kg PO QD, ABT-199 25 mg/kg PO QD, gemcitabine 5 mg/kg IP Q3D x4): 25.7%
Mean Tumor Volume (mm^3) ± SEM (TMD8 DLBCL xenografts [9]; [11]): 1,100.2 ± 134.5 mm^3
T/C (TMD8 DLBCL xenografts [9]; [11]): 0.74
Mean Tumor Volume (mm^3) ± SEM at Day 14 (Ly19 xenografts; [13]): 1683.9 ± 167.1 mm^3
TGI (%) (Ly19 xenografts; [13]): 32.6%
dAUC (Ly19 xenografts; vs vehicle, Compound A 60 mg/kg, bendamustine 1.0 mg/kg): 18.8
